These compounds were tested against BCL2 (Homo sapiens, UniProt P10415) (assay: Biacore SPR solution inhibition assay of BCL-2 binding to peptide derivatized sensor surfaces). Conditions: SPR competition; 56 nM BCL2 pre-equilibrated with compound one hour; biotinylated BAK, BAD and NOXA peptide surfaces; 25° C.
Procedure, shortened: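 Solution-competition SPR at 25 °C in HEPES pH 7.4 buffer with 1.25 mM DTT and 3% DMSO: compounds (6-point threefold series, 16 μM to 0.004 nM) pre-equilibrated 1 h with 56 nM BCL2, then injected over captured biotinylated BAK, BAD and NOXA peptide surfaces. Binding levels relative to BCL2-only controls gave % inhibition.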

Chain of BCL2 (P10415 whole entry): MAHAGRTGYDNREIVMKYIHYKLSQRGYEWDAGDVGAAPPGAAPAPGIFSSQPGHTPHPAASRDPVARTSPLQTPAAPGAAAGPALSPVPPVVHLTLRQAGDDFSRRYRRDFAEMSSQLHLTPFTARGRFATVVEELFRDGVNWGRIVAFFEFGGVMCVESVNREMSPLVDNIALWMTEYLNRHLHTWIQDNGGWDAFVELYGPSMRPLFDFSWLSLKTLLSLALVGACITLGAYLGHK

IC50 [nM] | Compound
41 | [2H]C1(N2CCc3c(ncnc3NS(=O)(=O)c3ccc(N[C@H](CCN(C)C(C)C)CSc4ccccc4)c(S(=O)(=O)C(F)(F)F)c3)C2)CCN(CC2=C(c3ccc(Cl)cc3)CC(C)(C)CC2)CC1 [Example 78, N-(7-(1-[2-(4-Chloro-phenyl)-4,4-dimethyl-cyclohex-1-enylmethyl]-4-deutero-piperidin-4-yl)-5,6,7,8-tetrahydro-pyrido[3,4-d]pyrimidin-4-yl)-4-[(R)-3-(isopropyl-methyl-amino)-1-phenylsulfanylmethyl-propylamino]-3-trifluoromethanesulfonyl-benzenesulfonamide]
84 | [2H]C1(N2CCc3c(ncnc3NS(=O)(=O)c3ccc(N[C@H](CCN)CSc4ccccc4)c(S(=O)(=O)C(F)(F)F)c3)C2)CCN(Cc2cc(F)ccc2-c2ccc(Cl)cc2)CC1 [Example 79, 4-((R)-3-Amino-1-phenylsulfanylmethyl-propylamino)-N-{7-[4-deutero-1-(4′-chloro-4-fluoro-biphenyl-2-ylmethyl)-piperidin-4-yl]-5,6,7,8-tetrahydro-pyrido[3,4-d]pyrimidin-4-yl}-3-trifluoromethanesulfonyl-benzenesulfonamide]
225 | [2H]C1(N2CCc3c(ncnc3NS(=O)(=O)c3ccc(N[C@H](CCN4CC5CCC(C4)O5)CSc4ccccc4)c(S(=O)(=O)C(F)(F)F)c3)C2)CCN(Cc2cc(F)ccc2-c2ccc(Cl)cc2)CC1 [Example 80, 4-((2R)-4-(8-oxa-3-azabicyclo[3.2.1]octan-3-yl)-1-(phenylthio)butan-2-ylamino)-N-(7-(1-((4′-chloro-4-fluorobiphenyl-2-yl)methyl)-4-deuteropiperidin-4-yl)-5,6,7,8-tetrahydropyrido[3,4-d]pyrimidin-4-yl)-3-(trifluoromethylsulfonyl)benzenesulfonamide]
312 | [2H]C1(N2CCc3c(ncnc3NS(=O)(=O)c3ccc(N[C@H](CCN4CC5CCC(C4)O5)CSc4ccccc4)c(S(=O)(=O)C(F)(F)F)c3)C2)CCN(CC2=C(c3ccc(Cl)cc3)CC(C)(C)CC2)CC1 [Example 81, 4-((2R)-4-(8-oxa-3-azabicyclo[3.2.1]octan-3-yl)-1-(phenylthio)butan-2-ylamino)-N-(7-(1-((2-(4-chlorophenyl)-4,4-dimethylcyclohex-1-enyl)methyl)-4-deuteropiperidin-4-yl)-5,6,7,8-tetrahydropyrido[3,4-d]pyrimidin-4-yl)-3-(trifluoromethylsulfonyl)-benzenesulfonamide]
109 | [2H]C1(N2CCc3c(ncnc3NS(=O)(=O)c3ccc(N[C@H](CCN4CCCC4)CSc4ccccc4)c(S(=O)(=O)C(F)(F)F)c3)C2)CCN(Cc2cc(F)ccc2-c2ccc(Cl)cc2)CC1 [Example 82, (R)-N-(7-(1-((4′-chloro-4 fluorobiphenyl-2-yl)methyl)-4-dueteropiperidin-4-yl)-5,6,7,8-tetrahydropyrido[3,4-d]pyrimidin-4-yl)-4-(1-(phenylthio)-4-(pyrrolidin-1-yl)butan-2-ylamino)-3-(trifluoromethylsulfonyl) benzene sulfonamide]
28 | [2H]C1(N2CCc3c(ncnc3NS(=O)(=O)c3ccc(N[C@H](CCN4CCN(C)CC4)CSc4ccccc4F)c(S(=O)(=O)C(F)(F)F)c3)C2)CCN(CC2=C(c3ccc(Cl)cc3)CC(C)(C)CC2)CC1 [Example 83]
73 | [2H]C1(N2CCc3c(ncnc3NS(=O)(=O)c3ccc(N[C@H](CCN(C)C(C)C)CSc4ccccc4)c(S(=O)(=O)C(F)(F)F)c3)C2)CCN(Cc2cc(F)ccc2-c2ccc(Cl)cc2)CC1 [Example 84]
30 | [2H]C1(N2CCc3c(ncnc3NS(=O)(=O)c3ccc(N[C@H](CCN4CCCC4)CSc4ccccc4)c(S(=O)(=O)C(F)(F)F)c3)C2)CCN(CC2=C(c3ccc(Cl)cc3)CC(C)(C)CC2)CC1 [Example 85, (R)-N-(7-(1-((2-(4-chlorophenyl)-4,4-dimethylcyclohex-1-enyl)methyl)-4-deuteropiperidin-4-yl)-5,6,7,8-tetrahydropyrido[3,4-d]pyrimidin-4-yl)-4-(1-(phenylthio)-4-(pyrrolidin-1-yl)butan-2-ylamino)-3-(trifluoromethylsulfonyl)benzenesulfonamide]
46 | [2H]C1(N2CCc3c(ncnc3NS(=O)(=O)c3ccc(N[C@H](CCN4CCOCC4)CSc4ccccc4)c(S(=O)(=O)C(F)(F)F)c3)C2)CCN([C@H](C)c2ccccc2-c2ccc(Cl)cc2)CC1 [Example 86, N-(7-{1-[(R)-1-(4′-Chloro-biphenyl-2-yl)-ethyl]-4-deuteropiperidin-4-yl}-5,6,7,8-tetrahydro-pyrido[3,4-d]pyrimidin-4-yl)-4-((R)-3-morpholin-4-yl-1-phenylsulfanylmethyl-propylamino)-3-trifluoromethanesulfonyl-benzenesulfonamide]
32 | [2H]C1(N2CCc3c(ncnc3NS(=O)(=O)c3ccc(N[C@H](CCN4CCN(C)CC4)CSc4ccccc4F)c(S(=O)(=O)C(F)(F)F)c3)C2)CCN(Cc2cc(F)ccc2-c2ccc(Cl)cc2)CC1 [Example 87, (R)-N-(7-(1-((4′-chloro-4-fluorobiphenyl-2-yl)methyl)-4-deuteropiperidin-4-yl)-5,6,7,8-tetrahydropyrido[3,4-d]pyrimidin-4-yl)-4-(1-(2-fluorophenylthio)-4-(4-methylpiperazin-1-yl)butan-2-ylamino)-3-(trifluoromethylsulfonyl)benzenesulfonamide]
2310 | [2H]C1(N2CCc3c(ncnc3NS(=O)(=O)c3ccc(N[C@H](CCN4CCOCC4)CSc4ccccc4)c(S(=O)(=O)C(F)(F)F)c3)C2)CCN([C@@H](C)c2ccccc2-c2ccc(Cl)cc2)CC1 [Example 88]
35 | [2H]C1(N2CCc3c(ncnc3NS(=O)(=O)c3ccc(N[C@H](CCN4CCN(CC)CC4)CSc4ccccc4)c(S(=O)(=O)C(F)(F)F)c3)C2)CCN(Cc2cc(F)ccc2-c2ccc(Cl)cc2)CC1 [Example 89, (R)-N-(7-(1-((4′-chloro-4-fluorobiphenyl-2-yl)methyl)-4-deuteropiperidin-4-yl)-5,6,7,8-tetrahydropyrido[3,4-d]pyrimidin-4-yl)-4-(4-(4-ethylpiperazin-1-yl)-1-(phenylthio)butan-2-ylamino)-3-(trifluoromethylsulfonyl)benzenesulfonamide]
149 | [2H]C1(N2CCc3c(ncnc3NS(=O)(=O)c3ccc(N[C@H](CCN4CCOCC4)CSc4ccccc4)c(S(=O)(=O)C(F)(F)F)c3)C2)CCN(C(C)C2=C(c3ccc(Cl)cc3)CC(C)(C)CC2)CC1 (stereo partly drawn) [Example 90, N-(7-(1-(1-(2-(4-chlorophenyl)-4,4-dimethylcyclohex-1-enyl)ethyl) 4-deuteropiperidin-4-yl)-5,6,7,8-tetrahydropyrido[3,4-d]pyrimidin-4-yl)-4-((R)-4-D-morpholino-1-(phenylthio)butan-2-ylamino)-3-(trifluoromethylsulfonyl)benzenesulfonamide]
41 | [2H]C1(N2CCc3c(ncnc3NS(=O)(=O)c3ccc(N[C@H](CCN4CCOCC4)CSc4ccccc4)c(S(=O)(=O)C(F)(F)F)c3)C2)CCN(CC2=C(c3ccc(Cl)cc3)CC(C)(C)CC2)CC1 [Example 91, (R)-N-(7-(1-((2-(4-chlorophenyl)-4,4-dimethylcyclohex-1-enyl)methyl)-4-deuteropiperidin-4-yl)-5,6,7,8-tetrahydropyrido[3,4-d]pyrimidin-4-yl)-4-(4-morpholino-1-(phenylthio)butan-2-ylamino)-3-(trifluoromethylsulfonyl)benzenesulfonamide]
194 | O=S(=O)(Nc1nnc2n1CCN(C1CCN(Cc3ccccc3-c3ccc(Cl)cc3)CC1)CC2)c1ccc(N[C@H](CCN2CCOCC2)CSc2ccccc2)c(S(=O)(=O)C(F)(F)F)c1 [Example 92, N-{6-[1-(4′-Chloro-biphenyl-2-ylmethyl)-piperidin-4-yl]-5,6,7,8-tetrahydro-4H-1,2,3a,6-tetraaza-azulen-3-yl}-4-((R)-3-morpholin-4-yl-1-phenylsulfanylmethyl-propylamino)-3-trifluoromethanesulfonyl-benzenesulfonamide]
24 | CN(C)CC[C@H](CSc1ccccc1)Nc1ccc(S(=O)(=O)Nc2nnc3n2CCN(C2CCN(Cc4ccccc4-c4ccc(Cl)cc4)CC2)CC3)cc1S(=O)(=O)C(F)(F)F [Example 93, N-{6-[1-(4′-Chloro-biphenyl-2-ylmethyl)-piperidin-4-yl]-5,6,7,8-tetrahydro-4H-1,2,3a,6-tetraaza-azulen-3-yl}-4-((R)-3-dimethylamino-1-phenyl-sulfanylmethyl-propylamino)-3-trifluoromethanesulfonyl-benzenesulfonamide]
405 | O=S(=O)(Nc1nnc2n1CCN(C1CCN(Cc3ccccc3-c3ccc(Cl)cc3)CC1)C2)c1ccc(N[C@H](CCN2CCOCC2)CSc2ccccc2)c(S(=O)(=O)C(F)(F)F)c1 [Example 94]
1900 | O=S(=O)(Nc1nnc2n1CCN(C1CCCN(Cc3ccccc3-c3ccc(Cl)cc3)CC1)C2)c1ccc(N[C@H](CCN2CCOCC2)CSc2ccccc2)c(S(=O)(=O)C(F)(F)F)c1 (stereo partly drawn) [Example 95, N-{7-[1-(4′-Chloro-biphenyl-2-ylmethyl)-azepan-4-yl]-5,6,7,8-tetrahydro-[1,2,4]triazolo[4,3-a]pyrazin-3-yl}-4-((R)-3-morpholin-4-yl-1-phenylsulfanylmethyl-propylamino)-3-trifluoromethanesulfonyl-benzenesulfonamide]
144 | CC1CC(N2CCn3c(nnc3NS(=O)(=O)c3ccc(N[C@H](CCN4CCOCC4)CSc4ccccc4)c(S(=O)(=O)C(F)(F)F)c3)C2)CCN1Cc1ccccc1-c1ccc(Cl)cc1 (stereo partly drawn) [Example 96, N-{7-[1-(4′-Chloro-biphenyl-2-ylmethyl)-2-methyl-piperidin-4-yl]-5,6,7,8-tetrahydro-[1,2,4]triazolo[4,3-a]pyrazin-3-yl}-4-((R)-3-morpholin-4-yl-1-phenylsulfanylmethyl-propylamino)-3-trifluoromethanesulfonyl-benzenesulfonamide]
